{"source": "patent US20260317347A1", "about": "“MACROCYCLIC COMPOUNDS AND THERAPEUTIC USES THEREOF” (SUNRISE ONCOLOGY (HONG KONG) LIMITED, priority 2023, published 2026)", "key": {"[1]": {"biological_target": "HRAS WT GTP + RAF1 + CYPA (Homo sapiens, UniProt P01112+P62937)", "sequence (P01112 whole entry)": "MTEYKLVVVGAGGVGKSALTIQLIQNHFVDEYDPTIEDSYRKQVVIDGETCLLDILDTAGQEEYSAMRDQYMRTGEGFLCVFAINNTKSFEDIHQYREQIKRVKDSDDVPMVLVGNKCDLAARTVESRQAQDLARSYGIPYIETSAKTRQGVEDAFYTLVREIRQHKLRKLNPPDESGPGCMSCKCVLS", "sequence (P62937 whole entry)": "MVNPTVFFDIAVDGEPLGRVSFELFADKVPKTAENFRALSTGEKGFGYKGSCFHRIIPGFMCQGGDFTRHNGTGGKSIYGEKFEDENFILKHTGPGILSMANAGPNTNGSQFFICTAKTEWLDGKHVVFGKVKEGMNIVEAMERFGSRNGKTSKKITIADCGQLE", "assay": "Ras: RAF1 HTRF Assay (RAS-GTP & Raf disruption)", "format": "biochemical", "conditions": "1 h incubation, room temperature", "experimental": "(§1) This example is to verify the binding between RAS protein and its interacting protein (SOS1 or RAF1). When RAS exists with SOS1 or RAF, the two interact to make the energy donor and receptor bound to it close enough, and then when the donor is excited by an external light source, energy resonance transfer occurs, thereby exciting the receptor and emitting a specific wavelength of emitted light, the FRET signal is detected.\n(§2) Specific experimental methods: 20 nM purified RAS protein (e.g. KRAS-G12D, G12V, G12C, WT; NRAS-WT) was incubated with the drug to be screened (the drug was diluted in a 3-fold gradient to a final concentration of 1000 nM) at room temperature for 1 h. Subsequently, 30 nM purified SOS1-Cat was added and incubated at room temperature for 0.5-1 h. After adding the detection antibody (PerkinElmer, Cisbio, HTRF antibody), the value was measured according to the manufacturer's instructions."}, "[2]": {"biological_target": "KRAS G12C GTP + RAF1 + CYPA (Homo sapiens, UniProt P01116+P62937, G12C)", "sequence (P01116 1-188 isoform P01116-2 G12C)": "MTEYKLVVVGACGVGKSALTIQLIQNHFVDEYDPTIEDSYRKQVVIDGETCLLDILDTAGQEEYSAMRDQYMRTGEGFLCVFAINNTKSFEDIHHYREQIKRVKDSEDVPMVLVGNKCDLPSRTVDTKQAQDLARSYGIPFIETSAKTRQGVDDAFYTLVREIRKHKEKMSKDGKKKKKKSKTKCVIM", "sequence (P62937 whole entry)": "as the sequence (P62937 whole entry) above", "assay": "Ras: RAF1 HTRF Assay (RAS-GTP & Raf disruption)", "format": "biochemical", "conditions": "1 h incubation, room temperature", "experimental": "as §1, §2"}, "[3]": {"biological_target": "KRAS G12D GTP + RAF1 + CYPA (Homo sapiens, UniProt P01116+P62937, G12D)", "sequence (P01116 1-188 isoform P01116-2 G12D)": "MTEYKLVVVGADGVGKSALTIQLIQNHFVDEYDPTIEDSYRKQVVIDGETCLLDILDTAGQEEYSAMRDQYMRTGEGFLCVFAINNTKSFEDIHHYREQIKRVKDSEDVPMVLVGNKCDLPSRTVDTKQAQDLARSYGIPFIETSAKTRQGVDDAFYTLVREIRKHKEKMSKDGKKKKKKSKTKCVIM", "sequence (P62937 whole entry)": "as the sequence (P62937 whole entry) above", "assay": "Ras: RAF1 HTRF Assay (RAS-GTP & Raf disruption)", "format": "biochemical", "conditions": "1 h incubation, room temperature", "experimental": "as §1, §2"}, "[4]": {"biological_target": "KRAS G12R GTP + RAF1 + CYPA (Homo sapiens, UniProt P01116+P62937, G12R)", "sequence (P01116 1-188 isoform P01116-2 G12R)": "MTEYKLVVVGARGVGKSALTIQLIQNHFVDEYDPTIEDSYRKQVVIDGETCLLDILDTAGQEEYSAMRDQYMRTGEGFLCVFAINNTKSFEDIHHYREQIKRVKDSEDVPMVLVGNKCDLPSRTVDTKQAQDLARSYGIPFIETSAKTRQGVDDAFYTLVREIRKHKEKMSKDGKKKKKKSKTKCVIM", "sequence (P62937 whole entry)": "as the sequence (P62937 whole entry) above", "assay": "Ras: RAF1 HTRF Assay (RAS-GTP & Raf disruption)", "format": "biochemical", "conditions": "1 h incubation, room temperature", "experimental": "as §1, §2"}, "[5]": {"biological_target": "KRAS G12V GTP + RAF1 + CYPA (Homo sapiens, UniProt P01116+P62937, G12V)", "sequence (P01116 1-188 isoform P01116-2 G12V)": "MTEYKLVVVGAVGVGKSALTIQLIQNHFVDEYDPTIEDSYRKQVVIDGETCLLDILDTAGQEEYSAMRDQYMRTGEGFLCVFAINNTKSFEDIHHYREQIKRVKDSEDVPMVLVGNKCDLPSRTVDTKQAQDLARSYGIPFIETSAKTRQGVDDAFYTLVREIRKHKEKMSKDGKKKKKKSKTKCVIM", "sequence (P62937 whole entry)": "as the sequence (P62937 whole entry) above", "assay": "Ras: RAF1 HTRF Assay (RAS-GTP & Raf disruption)", "format": "biochemical", "conditions": "1 h incubation, room temperature", "experimental": "as §1, §2"}, "[6]": {"biological_target": "KRAS G12S GTP + RAF1 + CYPA (Homo sapiens, UniProt P01116+P62937, G12S)", "sequence (P01116 1-188 isoform P01116-2 G12S)": "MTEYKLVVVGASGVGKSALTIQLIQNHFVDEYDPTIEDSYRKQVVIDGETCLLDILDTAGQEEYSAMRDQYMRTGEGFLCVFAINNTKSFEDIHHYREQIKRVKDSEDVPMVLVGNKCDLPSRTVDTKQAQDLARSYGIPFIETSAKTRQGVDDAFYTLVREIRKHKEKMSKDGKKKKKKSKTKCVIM", "sequence (P62937 whole entry)": "as the sequence (P62937 whole entry) above", "assay": "Ras: RAF1 HTRF Assay (RAS-GTP & Raf disruption)", "format": "biochemical", "conditions": "1 h incubation, room temperature", "experimental": "as §1\nas §2, with “Subsequently, 30 nM purified SOS1-Cat was added and incubated at room temperature for 0.5-1 h.” left out"}, "[7]": {"biological_target": "KRAS Q61H GTP + RAF1 + CYPA (Homo sapiens, UniProt P01116+P62937, Q61H)", "sequence (P01116 1-188 isoform P01116-2 Q61H)": "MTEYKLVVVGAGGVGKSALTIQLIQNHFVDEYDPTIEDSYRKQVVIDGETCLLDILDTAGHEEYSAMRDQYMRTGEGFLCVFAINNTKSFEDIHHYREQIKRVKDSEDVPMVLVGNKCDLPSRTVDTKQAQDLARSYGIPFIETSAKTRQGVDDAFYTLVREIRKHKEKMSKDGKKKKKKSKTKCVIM", "sequence (P62937 whole entry)": "as the sequence (P62937 whole entry) above", "assay": "Ras: RAF1 HTRF Assay (RAS-GTP & Raf disruption)", "format": "biochemical", "conditions": "1 h incubation, room temperature"}, "[8]": {"tested_on": "RAF1 with active KRAS mutant protein or HRAS WT protein", "assay": "Ras: RAF1 HTRF Assay, overall statement", "format": "biochemical", "conditions": "in words; FIG. 1"}, "[9]": {"tested_on": "A375 (BRAF V600E) cells", "assay": "Cell Viability Assay (MTS)", "format": "cell-based", "conditions": "RAS-independent, 5 days, FIG. 2", "from_the_text": "(§3) Selective screening using RAS-driven and RAS-non-driven cells: (1) RAS-driven cells, including cells with persistent RAS activation due to RAS mutations and upstream EGFR activation. Cells that are continuously activated due to RAS mutations, such as KRAS G12D (AsPC-1, HPAC, etc.) mutant cells, KRAS G12C (NCI-H358, MIAPaCa-2, etc.) KRAS G13D (LOVO, HCT15, etc.) mutant cells, etc. Cells with continuous activation of RAS due to EGFR mutations, such as EGFREx19del (PC-9, etc.) mutant cells, EGFRT790M/L858R (NCI-H1975, etc.) mutant cells, etc.; (2) Non-RAS driven cells, including BRAFV600E (A375, SK)-MEL-3, etc.) mutant cells, RASWT (BxPC-3, etc.) cells, etc.\n(§4) Specific experimental methods: The above cells were seeded in a 96-well plate at a density of 1000-10000 per well. Drugs were diluted in DMSO to make a 10 mM stock solution. Subsequently, the drug was diluted in a 3-fold gradient to a final concentration of 1000 nM. The cells were treated with the drug for 5 days. Cell viability was then detected by the MTS method."}, "[10]": {"tested_on": "AGS (KRAS G12D) cells", "assay": "Cell Viability Assay (MTS)", "format": "cell-based", "conditions": "5 days, FIG. 2", "from_the_text": "as §3, §4"}, "[11]": {"tested_on": "HepG2 (NRAS Q61L) cells", "assay": "Cell Viability Assay (MTS)", "format": "cell-based", "conditions": "5 days, FIG. 2", "from_the_text": "as §3, §4"}, "[12]": {"tested_on": "LOVO (KRAS G13D) cells", "assay": "Cell Viability Assay (MTS)", "format": "cell-based", "conditions": "5 days, FIG. 2", "from_the_text": "as §3, §4"}, "[13]": {"tested_on": "NCI-H1975 (EGFR T790M/L858R) cells", "assay": "Cell Viability Assay (MTS)", "format": "cell-based", "conditions": "5 days, FIG. 2", "from_the_text": "as §3, §4"}, "[14]": {"tested_on": "SW620 (KRAS G12V) cells", "assay": "Cell Viability Assay (MTS)", "format": "cell-based", "conditions": "5 days, FIG. 2", "from_the_text": "as §3, §4"}, "[15]": {"tested_on": "RAS dependent cells", "assay": "Cell Viability Assay (MTS), overall statement", "format": "cell-based", "conditions": "FIG. 2", "from_the_text": "as §3, §4"}}, "note": "“Also recorded” adds a separate entry of the source.", "data": [{"smiles": "CCn1c(-c2cc(P(C)(C)=O)ccc2[C@H](C)OC)c2c3cc(ccc31)-c1cc(O)cc(c1)C[C@H](NC(=O)[C@H](C(C)C)N(C)C(=O)[C@@H]1OCC[C@@H]1c1ccccc1)C(=O)N1CCC[C@H](N1)C(=O)OCC(C)(C)C2", "note": "[Example 2, (2R,3R)—N-((2S)-1-(((6^3S,4S)-1^2-(5-(dimethylphosphoryl)-2-((S)-1-methoxyethyl)phenyl)-1^1-ethyl-2^5-hydroxy-10,10-dimethyl-5,7-dioxo-6^1,6^2,6^3,6^4,6^5,6^6-hexahydro-1^1H-8-oxa-1(5,3)-indola-6(1,3)-pyridazina-2(1,3)-benzenacycloundecaphane-4-yl)amino)-3-methyl-1-oxobutan-2-yl)-N-methyl-3-phenyltetrahydrofuran-2-carboxamide]", "values": [{"measurement": "IC50", "setting": "[1]", "result": "0.4678 ± 0.0046", "unit": "µM"}, {"measurement": "IC50", "setting": "[2]", "result": "0.0158 ± 0.00397", "unit": "µM"}, {"measurement": "IC50", "setting": "[3]", "result": "0.0559 ± 0.00892", "unit": "µM"}, {"measurement": "IC50", "setting": "[4]", "result": "0.729 ± 0.106", "unit": "µM"}, {"measurement": "IC50", "setting": "[5]", "result": "0.165 ± 0.00792", "unit": "µM"}, {"measurement": "IC50", "setting": "[6]", "result": "0.0196 ± 0.00103", "unit": "µM"}, {"measurement": "IC50", "setting": "[7]", "result": "0.03124 ± 0.0003", "unit": "µM"}, {"measurement": "inhibition of the interaction of RAF1 with active KRAS mutant protein or HRAS WT protein", "setting": "[8]", "result": "potently inhibited; also recorded: significantly inhibited"}, {"measurement": "inhibition of cell viability", "setting": "[9]", "result": "relative insensitive"}, {"measurement": "inhibition of cell viability", "setting": "[10]", "result": "significantly inhibited"}, {"measurement": "inhibition of cell viability", "setting": "[11]", "result": "significantly inhibited"}, {"measurement": "inhibition of cell viability", "setting": "[12]", "result": "significantly inhibited"}, {"measurement": "inhibition of cell viability", "setting": "[13]", "result": "significantly inhibited"}, {"measurement": "inhibition of cell viability", "setting": "[14]", "result": "significantly inhibited"}, {"measurement": "inhibition of cell viability", "setting": "[15]", "result": "potently inhibited"}]}]}
